Test results as given in patent US5491135A (priority 1993, dated 1996).
Several values for one entry are separate records, joined by “and”; a condition that tells them apart may be missing. Equal values may be shown once.

Test system: HCMV strain AD 169
Assay: Rabbit HCMV efficacy and time course recovery (Example 6)
[1] = PALA 50, DHPG 10 or both, mg/kg/day i.v.
[2] = day 3, DHPG 10 or PALA 50 + DHPG 10 mg/kg/d, sum of both eyes
[3] = day 3, PALA 50, DHPG 10 or both, mg/kg/d
[4] = day 3, sham-inoculated S1-S5, dose as groups 1-5
[5] = day 4, DHPG 10 or PALA 50 + DHPG 10 mg/kg/d, sum of both eyes
[6] = day 4, PALA 50, DHPG 10 or both, mg/kg/d
[7] = day 4, sham-inoculated S1-S5, dose as groups 1-5
[8] = day 5, DHPG 10 or PALA 50 + DHPG 10 mg/kg/d, sum of both eyes
[9] = day 5, PALA 50, DHPG 10 or both, mg/kg/d
[10] = day 5, sham-inoculated S1-S5, dose as groups 1-5
[11] = day 6, PALA 50, DHPG 10 or both, mg/kg/d
[12] = day 6, sham-inoculated S1-S5, dose as groups 1-5
[13] = day 7, DHPG 10 or PALA 50 + DHPG 10 mg/kg/d, sum of both eyes
[14] = day 7, sham-inoculated S1-S5, dose as groups 1-5
[15] = day 10, DHPG 10 or PALA 50 + DHPG 10 mg/kg/d, sum of both eyes
[16] = day 10, sham-inoculated S1-S5, dose as groups 1-5

Nc1nc(O)c2ncn(COC(CO)CO)c2n1 [DHPG, reference compound]
HCMV recovery [1]: better than the mid-dose and low-dose combination therapy group and the single agent PALA group and the placebo therapy group | clinical disease [1]: did reduce the development of HCMV chorioretinal infection and disease and vitreitis | Optic neuritis score (ONH) (day 3, DHPG 10 or PALA 50 + DHPG 10 mg/kg/d): 2 | Chorioretinal score (C) [2]: 0 | Vitreitis score (V) [2]: 3 and 2 | HCMV Recovered, OD [3]: + | HCMV Recovered, OS [3]: + | HCMV Titer, OD [3]: 10^3 pfu | HCMV Titer, OS [3]: 10^3 pfu | HCMV recovery frequency [3]: 2/2 | Chorioretinal score (C) [4]: 0 | Vitreitis score (V) [4]: 0 | Optic neuritis score (ONH) (day 3, sham-inoculated S2-S5, dose as groups 2-5): 0 | Chorioretinal score (C) [5]: 0.5 | Vitreitis score (V) [5]: 4 and 4.25 | HCMV Recovered, OD [6]: + | HCMV Recovered, OS [6]: - | HCMV Titer, OD [6]: 10^1 pfu | HCMV recovery frequency [6]: 1/2 | Chorioretinal score (C) [7]: 0 | Vitreitis score (V) [7]: 0 | Optic neuritis score (ONH) (day 4, sham-inoculated S2-S5, dose as groups 2-5): 0 | Optic neuritis score (ONH) (day 5, DHPG 10 or PALA 50 + DHPG 10 mg/kg/d): 4 and 5 | Chorioretinal score (C) [8]: 0.5 | Vitreitis score (V) [8]: 4.5 and 2.75 | HCMV Recovered, OD [9]: - | HCMV Recovered, OS [9]: - | HCMV recovery frequency [9]: 0/2 | Chorioretinal score (C) [10]: 0 | Vitreitis score (V) [10]: 0 | Optic neuritis score (ONH) (day 5, sham-inoculated S2-S5, dose as groups 2-5): 0 | Vitreitis score (V) (day 6, DHPG 10 or PALA 50 + DHPG 10 mg/kg/d, sum of both eyes): 3.5 and 2.5 | HCMV Recovered, OD [11]: + | HCMV Recovered, OS [11]: - | HCMV recovery frequency [11]: 1/2 | HCMV Titer, OD (day 6, PALA 50 or DHPG 10 mg/kg/d): 10^1 pfu | Chorioretinal score (C) [12]: 0 | Vitreitis score (V) [12]: 0 | Optic neuritis score (ONH) (day 6, sham-inoculated S2-S5, dose as groups 2-5): 0 | Optic neuritis score (ONH) (day 7, DHPG 10 or PALA 50 + DHPG 10 mg/kg/d): 3 and 6 | Chorioretinal score (C) [13]: 0 | Vitreitis score (V) [13]: 3.5 and 3 | Chorioretinal score (C) [14]: 0 | Vitreitis score (V) [14]: 0 | Optic neuritis score (ONH) (day 7, sham-inoculated S2-S5, dose as groups 2-5): 0 | Optic neuritis score (ONH) (day 10, DHPG 10 or PALA 50 + DHPG 10 mg/kg/d): 3 | Chorioretinal score (C) [15]: 0 | Vitreitis score (V) [15]: 1.75 and 1.25 | Chorioretinal score (C) [16]: 0 | Vitreitis score (V) [16]: 0 | Optic neuritis score (ONH) (day 10, sham-inoculated S2-S5, dose as groups 2-5): 0
